According to PubChem BioAssay (NCI):
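Compound exposure: 48 hours, 5 concentrations, 96-well plates. The concentration for 50% growth inhibition is given as GI50. TGI marks complete inhibition of growth.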

Assays:
Test in all cases: NCI tumour cell line growth inhibition, 48 h
COLO 205 colon = system: COLO 205 colon
EKVX NSCLC = system: EKVX NSCLC
HOP-92 NSCLC = system: HOP-92 NSCLC
HS 578T breast = system: HS 578T breast
MALME-3M melanoma = system: MALME-3M melanoma
MOLT-4 leukemia = system: MOLT-4 leukemia
NCI-H460 lung = system: NCI-H460 lung
OVCAR-5 ovarian = system: OVCAR-5 ovarian
SF-268 CNS = system: SF-268 CNS
SK-MEL-2 melanoma = system: SK-MEL-2 melanoma

SMILES | GI50 (COLO 205 colon) [µM] | TGI (COLO 205 colon) [µM] | GI50 (EKVX NSCLC) [µM] | TGI (EKVX NSCLC) [µM] | GI50 (HOP-92 NSCLC) [µM] | TGI (HOP-92 NSCLC) [µM] | GI50 (HS 578T breast) [µM] | TGI (HS 578T breast) [µM] | TGI (MALME-3M melanoma) [µM] | GI50 (MOLT-4 leukemia) [µM] | TGI (MOLT-4 leukemia) [µM] | GI50 (NCI-H460 lung) [µM] | TGI (NCI-H460 lung) [µM] | GI50 (OVCAR-5 ovarian) [µM] | TGI (OVCAR-5 ovarian) [µM] | GI50 (SF-268 CNS) [µM] | TGI (SF-268 CNS) [µM] | GI50 (SK-MEL-2 melanoma) [µM] | TGI (SK-MEL-2 melanoma) [µM] | GI50 (MALME-3M melanoma) [µM]
COc1ccc(-c2oc(=O)ccc2-c2cc(OC)c(OC)c(OC)c2)cc1O | 6.78 | 36 | 6.98 | > 100 | 8.61 | > 80.4 | 1.51 | > 29.4 | > 100 | 2.01 | > 100 | 0.604 | > 100 | 12.7 | > 100 | 2.04 | > 72.1 | 2.31 | > 38.7 | –
CCC(=O)Nc1ccccc1C#C/C=C\C#Cc1ccccc1SC | 9.84 | > 100 | 7.11 | 78.5 | 3.96 | 78.7 | 17.1 | > 100 | > 100 | 4.46 | > 100 | 3.4 | > 100 | 33.3 | > 100 | 12.3 | > 100 | 0.0742 | 3.83 | 35.1
COc1ccc(-c2cc(-c3cccn3C)c(C#N)c(=O)[nH]2)cc1OC | > 100 | > 100 | 30.7 | > 100 | 0.0508 | 9.8 | > 100 | > 100 | > 100 | 22.7 | > 100 | > 100 | > 100 | > 100 | > 100 | > 100 | > 100 | > 100 | > 100 | > 100
C=C1C(=O)O[C@H]2[C@H]1CC/C(COC(=O)C(=O)c1cn(C)c3ccc(Cl)cc13)=C\CC[C@@]1(C)O[C@@H]21 | 1.96 | 4.2 | 1.92 | 4.29 | 1.72 | 3.62 | 3.14 | 17.6 | 4.28 | 0.494 | 4.17 | 2.28 | 6.75 | 1.91 | 5.82 | 1.56 | 4.56 | 1.39 | 3.61 | 1.74
O=c1ccs[nH]1 | – | 30.9 | – | 27.2 | – | 32.2 | – | 49.7 | 35.5 | – | 25 | – | 34.3 | – | 36.3 | – | 35.4 | – | 61.3 | –
COC(=O)c1cc2c3ccccc3n3c(=O)c4cc5ccccc5nc4c(n1)c23 | > 100 | > 100 | > 100 | > 100 | > 100 | > 100 | > 100 | > 100 | > 100 | > 100 | > 100 | > 100 | > 100 | > 100 | > 100 | > 100 | > 100 | > 100 | > 100 | > 100
CCOC(=O)NC1C2CC(=O)OC(O2)C1OC(C)=O (stereo not given) | – | > 100 | – | > 100 | – | > 100 | > 100 | > 100 | > 100 | – | > 100 | – | > 100 | – | > 100 | – | > 100 | – | > 100 | –
CNC(=O)c1ccc(N2C(=S)N(c3ccc(C#N)c(C(F)(F)F)c3)C(=O)C2(C)C)cc1F | 32 | > 57.7 | 25 | > 80.5 | 16.5 | > 48.9 | > 43.1 | > 86.8 | > 82.1 | 33.1 | > 100 | 28.2 | > 74.3 | > 47.5 | > 92.4 | > 52.3 | > 100 | 36.2 | > 71.9 | 20.9
Cc1occc1C(=S)Nc1ccc(Cl)c(C(=O)OC(C(C)C)C(C)C)c1 | – | 34.4 | – | 27.3 | – | 22.6 | – | 48.5 | 26 | – | 23.1 | – | 31.6 | – | 57.2 | – | 45.1 | – | 38.4 | –
CCCN(CCC)c1ccc(/C=C/c2ccc3cc(OCC)ccc3n2)cc1 | > 100 | > 100 | 91.4 | > 100 | > 100 | > 100 | > 100 | > 100 | > 100 | > 100 | > 100 | 63.2 | > 100 | > 100 | > 100 | > 100 | > 100 | > 100 | > 100 | > 100
